Assay results from paper PMC9090415, “Discovery of small molecule inhibitors of Plasmodium falciparum apicoplast DNA polymerase” (Journal of Enzyme Inhibition and Medicinal Chemistry, 2022).

Molecular target: P. falciparum apicoplast DNA polymerase (Pf-apPOL) (Plasmodium falciparum, UniProt Q8ILY1)
Assay: Fluorescence-based high-throughput DNA polymerase assay (molecular beacon), primary screen and dose-response
Format: biochemical
Settings: for DNA Pol: 90 min, 10 µM; for % inhibition apPOL 180' 2.5 / % inhibition apPOL 180' 5 / % inhibition apPOL 180' 10 / % inhibition apPOL 180' 20 / % inhibition apPOL 180' 40 / % inhibition apPOL 180' 80: read at 180'
Outline: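 Single-point screening used 10 µM compound with 20 nM polymerase, 20 nM hairpin substrate and 6 µM dNTPs for 90 min at 25 °C. Confirmatory titrations (2.5–80 µM) followed fluorescence at three times, and IC50 was derived from a fit including a cooperativity term n.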

P. falciparum apicoplast DNA polymerase (Pf-apPOL), sequence (Q8ILY1 entry or part of it): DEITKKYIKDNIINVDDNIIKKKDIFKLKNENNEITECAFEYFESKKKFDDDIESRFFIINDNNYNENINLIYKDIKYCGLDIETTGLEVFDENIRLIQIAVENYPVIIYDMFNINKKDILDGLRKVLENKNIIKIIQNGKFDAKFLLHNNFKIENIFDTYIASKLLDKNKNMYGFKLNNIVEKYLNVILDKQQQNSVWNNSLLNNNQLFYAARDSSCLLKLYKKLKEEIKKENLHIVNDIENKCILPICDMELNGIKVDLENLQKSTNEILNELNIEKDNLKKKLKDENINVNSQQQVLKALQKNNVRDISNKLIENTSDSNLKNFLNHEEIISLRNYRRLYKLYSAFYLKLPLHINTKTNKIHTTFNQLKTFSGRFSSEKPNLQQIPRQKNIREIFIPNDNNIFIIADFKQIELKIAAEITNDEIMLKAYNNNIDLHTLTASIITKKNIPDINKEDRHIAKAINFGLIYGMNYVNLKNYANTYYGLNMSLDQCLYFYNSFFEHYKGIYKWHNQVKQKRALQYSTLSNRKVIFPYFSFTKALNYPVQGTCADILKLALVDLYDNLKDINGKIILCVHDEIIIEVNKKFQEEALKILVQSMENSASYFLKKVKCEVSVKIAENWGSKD

Q: With `CC(C)CC(C(=O)O)N1C(=O)C2C3C=CC(C2C1=O)C1C(=O)N(C(CC(C)C)C(=O)O)C(=O)C31` (centres unmarked) [KU0193449] as the compound, how does the “DNA Pol” value (186 hits, DNA Pol (screen value), unit not given) read?
A: Its value is 28.

Q: And the “DNA Pol” value ('DNA Pol' (screen value), unit not given)?
A: The value was 28.

Q: And the “% inhibition Apo pol 10' 2.5” value (DRC-1, read at 10', concentration 2.5)?
A: The value was 0%.

Q: What about the “% inhibition Apo pol 10' 5” value (DRC-1, read at 10', concentration 5) of the same compound?
A: The value was 0.7522%.

Q: And the “% inhibition Apo pol 10' 10” value (DRC-1, read at 10', concentration 10)?
A: Its value is 13.4113%.

Q: What about the “% inhibition Apo pol 10' 20” value (DRC-1, read at 10', concentration 20) of the same compound?
A: Its value is 21.694%.

Q: What about the “% inhibition Apo pol 10' 40” value (DRC-1, read at 10', concentration 40) of the same compound?
A: The value was 38.6815%.

Q: What about the “% inhibition Apo pol 10' 80” value (DRC-1, read at 10', concentration 80) of the same compound?
A: Its value is 61.0106%.

Q: And the “% inhibition Apol 90' 2.5” value (DRC-1, read at 90', concentration 2.5)?
A: Its value is 5.482%.

Q: What about the “% inhibition Apol 90' 5” value (DRC-1, read at 90', concentration 5) of the same compound?
A: The value was 4.361%.

Q: And the “% inhibition Apol 90' 10” value (DRC-1, read at 90', concentration 10)?
A: Its value is 18.2004%.

Q: And the “% inhibition Apol 90' 20” value (DRC-1, read at 90', concentration 20)?
A: The value was 26.7933%.

Q: And the “% inhibition Apol 90' 40” value (DRC-1, read at 90', concentration 40)?
A: Its value is 43.0787%.

Q: And the “% inhibition Apol 90' 80” value (DRC-1, read at 90', concentration 80)?
A: Its value is 61.6554%.

Q: What about the “% inhibition apPOL 180' 2.5” value (DRC-1, concentration 2.5) of the same compound?
A: Its value is 11.5947%.

Q: What about the “% inhibition apPOL 180' 5” value (DRC-1, concentration 5) of the same compound?
A: The value was 8.787%.

Q: What about the “% inhibition apPOL 180' 10” value (DRC-1, concentration 10) of the same compound?
A: The value was 22.2545%.

Q: And the “% inhibition apPOL 180' 20” value (DRC-1, concentration 20)?
A: Its value is 29.0446%.

Q: What about the “% inhibition apPOL 180' 40” value (DRC-1, concentration 40) of the same compound?
A: The value was 41.2526%.

Q: And the “% inhibition apPOL 180' 80” value (DRC-1, concentration 80)?
A: The value was 55.1992%.

Q: And the “% inhibition Apo pol 5'” value (DRC-2, concentration 20)?
A: Its value is 13%.

Q: And the “% inhibition Apol 40'” value (DRC-2, concentration 20)?
A: Its value is 20%.

Q: And the “% inhibition ApPOL 90'” value (DRC-2, concentration 20)?
A: The value was 20%.

Q: What about the “% inhibition apPOL 180'” value (DRC-2, concentration 20) of the same compound?
A: The value was 13%.

Q: And the “% inhibition Apo pol 5' 2.5” value (DRC-2, read at 5', concentration 2.5)?
A: Its value is -1.41%.

Q: What about the “% inhibition Apo pol 5' 5” value (DRC-2, read at 5', concentration 5) of the same compound?
A: Its value is 2.69%.

Q: What about the “% inhibition Apo pol 5' 10” value (DRC-2, read at 5', concentration 10) of the same compound?
A: Its value is 10%.

Q: And the “% inhibition Apo pol 5' 20” value (DRC-2, read at 5', concentration 20)?
A: Its value is 13%.

Q: What about the “% inhibition Apo pol 5' 40” value (DRC-2, read at 5', concentration 40) of the same compound?
A: Its value is 23%.

Q: What about the “% inhibition Apo pol 5' 80” value (DRC-2, read at 5', concentration 80) of the same compound?
A: The value was 31%.

Q: What about the “% inhibition Apol 40' 2.5” value (DRC-2, read at 40', concentration 2.5) of the same compound?
A: Its value is -0.315%.

Q: What about the “% inhibition Apol 40' 5” value (DRC-2, read at 40', concentration 5) of the same compound?
A: Its value is 4.49%.

Q: What about the “% inhibition Apol 40' 10” value (DRC-2, read at 40', concentration 10) of the same compound?
A: Its value is 12%.

Q: And the “% inhibition Apol 40' 20” value (DRC-2, read at 40', concentration 20)?
A: The value was 20%.

Q: And the “% inhibition Apol 40' 40” value (DRC-2, read at 40', concentration 40)?
A: The value was 33%.

Q: What about the “% inhibition Apol 40' 80” value (DRC-2, read at 40', concentration 80) of the same compound?
A: The value was 49%.

Q: And the “% inhibition ApPOL 90' 2.5” value (DRC-2, read at 90', concentration 2.5)?
A: The value was -0.778%.

Q: And the “% inhibition ApPOL 90' 5” value (DRC-2, read at 90', concentration 5)?
A: Its value is 4.24%.

Q: And the “% inhibition ApPOL 90' 10” value (DRC-2, read at 90', concentration 10)?
A: The value was 11%.

Q: And the “% inhibition ApPOL 90' 20” value (DRC-2, read at 90', concentration 20)?
A: Its value is 20%.

Q: What about the “% inhibition ApPOL 90' 40” value (DRC-2, read at 90', concentration 40) of the same compound?
A: Its value is 34%.

Q: And the “% inhibition ApPOL 90' 80” value (DRC-2, read at 90', concentration 80)?
A: Its value is 51%.

Q: What about the “% inhibition apPOL 180' 2.5” value (DRC-2, concentration 2.5) of the same compound?
A: The value was -5%.

Q: What about the “% inhibition apPOL 180' 5” value (DRC-2, concentration 5) of the same compound?
A: Its value is -2.57%.

Q: And the “% inhibition apPOL 180' 10” value (DRC-2, concentration 10)?
A: The value was 5%.

Q: And the “% inhibition apPOL 180' 20” value (DRC-2, concentration 20)?
A: The value was 13%.

Q: What about the “% inhibition apPOL 180' 40” value (DRC-2, concentration 40) of the same compound?
A: The value was 28%.

Q: And the “% inhibition apPOL 180' 80” value (DRC-2, concentration 80)?
A: Its value is 47%.

Q: For `COc1ccc(-c2n[nH]cc2Oc2ccc(Cl)cc2)c(O)c1` [KU0029837], which “DNA Pol” value ("DNA Pol" of the 186 hits list (screen value)) is on record?
A: Its value is 54.

Q: What about the “% inhibition Apo pol 10'” value (DRC-1, concentration 2.5) of the same compound?
A: Its value is 13.0965%.

Q: What about the “% inhibition Apo pol 10'” value (DRC-1, concentration 5) of the same compound?
A: The value was 22.8396%.

Q: What about the “% inhibition Apo pol 10'” value (DRC-1, concentration 10) of the same compound?
A: The value was 52.0762%.

Q: And the “% inhibition Apo pol 10'” value (DRC-1, concentration 20)?
A: Its value is 64.1383%.

Q: What about the “% inhibition Apo pol 10'” value (DRC-1, concentration 40) of the same compound?
A: Its value is 82.54%.

Q: And the “% inhibition Apo pol 10'” value (DRC-1, concentration 80)?
A: Its value is 88.9574%.

Q: What about the “% inhibition Apol 90'” value (DRC-1, concentration 2.5) of the same compound?
A: The value was 6.836%.

Q: What about the “% inhibition Apol 90'” value (DRC-1, concentration 5) of the same compound?
A: Its value is 14.8627%.

Q: And the “% inhibition Apol 90'” value (DRC-1, concentration 10)?
A: The value was 39.7229%.

Q: And the “% inhibition Apol 90'” value (DRC-1, concentration 20)?
A: The value was 52.6198%.

Q: And the “% inhibition Apol 90'” value (DRC-1, concentration 40)?
A: The value was 73.85%.

Q: And the “% inhibition Apol 90'” value (DRC-1, concentration 80)?
A: Its value is 85.1708%.

Q: And the “% inhibition apPOL 180'” value (DRC-1, concentration 2.5)?
A: The value was 2.031%.

Q: What about the “% inhibition apPOL 180'” value (DRC-1, concentration 5) of the same compound?
A: Its value is 3.615%.

Q: What about the “% inhibition apPOL 180'” value (DRC-1, concentration 10) of the same compound?
A: The value was 25.5956%.

Q: What about the “% inhibition apPOL 180'” value (DRC-1, concentration 20) of the same compound?
A: Its value is 36.8517%.

Q: And the “% inhibition apPOL 180'” value (DRC-1, concentration 40)?
A: Its value is 62.2191%.

Q: What about the “% inhibition apPOL 180'” value (DRC-1, concentration 80) of the same compound?
A: Its value is 78.7822%.

Q: And the “% inhibition Apo pol 5'” value (DRC-2, concentration 2.5)?
A: Its value is 15%.

Q: What about the “% inhibition Apo pol 5'” value (DRC-2, concentration 5) of the same compound?
A: The value was 23%.

Q: What about the “% inhibition Apo pol 5'” value (DRC-2, concentration 10) of the same compound?
A: Its value is 39%.

Q: And the “% inhibition Apo pol 5'” value (DRC-2, concentration 20)?
A: Its value is 43%.

Q: And the “% inhibition Apo pol 5'” value (DRC-2, concentration 40)?
A: Its value is 51%.

Q: And the “% inhibition Apo pol 5'” value (DRC-2, concentration 80)?
A: The value was 51%.

Q: And the “% inhibition Apol 40'” value (DRC-2, concentration 2.5)?
A: Its value is 15%.

Q: And the “% inhibition Apol 40'” value (DRC-2, concentration 5)?
A: Its value is 27%.

Q: And the “% inhibition Apol 40'” value (DRC-2, concentration 10)?
A: Its value is 46%.

Q: And the “% inhibition Apol 40'” value (DRC-2, concentration 20)?
A: Its value is 55%.

Q: What about the “% inhibition Apol 40'” value (DRC-2, concentration 40) of the same compound?
A: Its value is 69%.

Q: What about the “% inhibition Apol 40'” value (DRC-2, concentration 80) of the same compound?
A: Its value is 72%.

Q: And the “% inhibition ApPOL 90'” value (DRC-2, concentration 2.5)?
A: Its value is 13%.

Q: And the “% inhibition ApPOL 90'” value (DRC-2, concentration 5)?
A: The value was 24%.

Q: And the “% inhibition ApPOL 90'” value (DRC-2, concentration 10)?
A: The value was 44%.

Q: What about the “% inhibition ApPOL 90'” value (DRC-2, concentration 20) of the same compound?
A: Its value is 53%.

Q: And the “% inhibition ApPOL 90'” value (DRC-2, concentration 40)?
A: Its value is 71%.

Q: And the “% inhibition ApPOL 90'” value (DRC-2, concentration 80)?
A: Its value is 74%.

Q: What about the “% inhibition apPOL 180'” value (DRC-2, concentration 2.5) of the same compound?
A: The value was 2.39%.

Q: What about the “% inhibition apPOL 180'” value (DRC-2, concentration 5) of the same compound?
A: Its value is 13%.

Q: And the “% inhibition apPOL 180'” value (DRC-2, concentration 10)?
A: The value was 32%.

Q: What about the “% inhibition apPOL 180'” value (DRC-2, concentration 20) of the same compound?
A: The value was 43%.

Q: What about the “% inhibition apPOL 180'” value (DRC-2, concentration 40) of the same compound?
A: The value was 66%.

Q: And the “% inhibition apPOL 180'” value (DRC-2, concentration 80)?
A: Its value is 74%.

Q: And the “DNA Pol” value (primary screen value, DNA Pol)?
A: Its value is 54.
